Measured values published in patent publication US6555559B1, “5,6,7-trinor-4,8-inter-m-phenylene PGI2, derivative and drugs containing the same” (Toray Industries, Inc., priority 1998, dated 2003).
Converted amounts (≈) assume the structure as drawn.

What was measured:
Assay type in all cases: cell-based
[1] = test system: human platelet aggregation; assay: Effect on human platelet aggregation (ADP-induced, in the presence of SQ-29548); conditions: human PRP, SQ-29548 added, aggregation induced with ADP, compound 10 μM; control 38 ± 4.9
Experimental: The blood collected from healthy persons was centrifuged to separate platelet-rich plasma (PRP) and platelet-poor plasma (PPP). […] Experiment was carried out for 3 examples per group.

[2] = test system: Helicobacter pylori (2 ATCC strains and 25 clinical isolates); assay: Antibacterial activity on Helicobacter pylori, agar dilution MIC, 27 strains; conditions: for Growth inhibition rate: share of 27 strains inhibited
Experimental: As test strains, 2 commercial ATCC strains ([…] and TACC43526 strain) of Helicobacter pylori, and 25 clinical isolates were used. Each of the strains was inoculated into a brain heart infusion agar medium containing 7% horse blood, and cultured under microaerophilic conditions including 5% of O2, 10% of CO2 and 85% of N2 at 37° C. After culture for 3 to 4 days, colonies of each strain formed on the medium were collected, and suspended in a brain heart infusion medium containing 10% of fetal calf serum so that turbidity was McFarland No. 1 (the number of bacteria was about 3×10^8/ml) to form a test bacterial suspension. On the other hand, a test compound (compound 4) was dissolved in dimethylsulfoxide, and a diluent in a double dilution series was prepared with dimethylsulfoxide so that the final concentration of the solvent was 0.5%, to form a test drug solution. 100 μl of the test drug solution was mixed with 20 ml of a brain heart infusion agar medium containing 7% horse blood and about 45° C., and the resultant mixture was solidified by allowing to cool to form a test medium. Next, about 5 μl of test bacterial suspension was inoculated into the medium by using a micro planter, and then cultured under microaerophilic conditions including 5% of O2, 10% of CO2 and 85% of N2 at 37° C. for 4 days. […] The minimum concentration at which growth of 50% of the total 27 stains used in the test was inhibited was MIC50, and the minimum concentration at which growth of 90% the strains used was inhibited was MIC90.

[3] = test system: Helicobacter pylori (three strains of ATCC43504, ATCC43526, and TK1402); assay: Antibacterial activity on Helicobacter pylori, disk method, lethal concentration (LC); conditions: culture 4 days
Experimental: A blank disk (produced by Beckton Deckinson Co.,) was placed in a brain heart infusion agar medium containing 7% horse blood and coated with Helicobacter pylori (three strains of ATCC43504, ATCC43526, and TK1402). The disk was soaked with 10 μl of a solution of a test compound in dimethylsulfoxide, and then cultured under microaerophilic conditions including 5% of O2, 10% of CO2 and 85% of N2 at 37° C. for 4 days. After the completion of culture, the diameter of a growth inhibition circle formed around the disk was measured, and the lethal concentration (LC) of each test compound was computed according to the computation expression of Hultmark et al. (The EMBO Journal, 2, 571-576, 1983).

## CC(C)(Oc1ccccc1)C(O)C(F)=CC1C(O)CC2Oc3c(CCC(=O)O)cccc3C21 (stereo not drawn) [Example 3, 14-Fluoro-16-methyl-16-phenoxy-2,5,6,7,18,19,20-heptanor-4,8-inter-m-phenylene PGI2]
[1]
  Platelet aggregation: 54 ± 1.7%

## CC(C)(Oc1ccccc1)C(O)C(F)=CC1C(O)CC2Oc3c(CCC(=O)O)cccc3C21 (stereo not drawn) [Example 4, 14-Fluoro-16-methyl-16-phenoxy-15-epi-2,5,6,7,18,19,20-heptanor-4,8-inter-m-phenylene PGI2]
[2]; concentration 12.5 μM
  Number of strains inhibited/total strains: 11/27
  Growth inhibition rate: 40.7%
[2]; concentration 25 μM
  Number of strains inhibited/total strains: 20/27
  Growth inhibition rate: 74.1%
[2]; concentration 50 μM
  Number of strains inhibited/total strains: 26/27
  Growth inhibition rate: 96.3%
[2]; minimum concentration inhibiting growth of 50% of the total 27 strains
  MIC50: 12.5 µM (≈ 5.71 µg/mL)
[2]; minimum concentration inhibiting growth of 90% of the total 27 strains
  MIC90: 50 µM (≈ 22.8 µg/mL)

## COC(=O)CCc1cccc2c1OC1CC(OC(C)=O)C(C=C(F)C(=O)C(C)(C)Oc3ccccc3)C21 (stereo not drawn) [Example 1, 14-Fluoro-16-methyl-15-oxo-16-phenoxy-2,5,6,7,18,19,20-heptanor-4,8-inter-m-phenylene PGI2 Methyl Ester, 11-Acetate]
[3]; Helicobacter pylori strain ATCC43504
  Antibacterial activity (lethal concentration LC): 141 ± 27 µM
[3]; Helicobacter pylori strain ATCC43526
  Antibacterial activity (lethal concentration LC): 169 ± 6 µM
[3]; Helicobacter pylori strain TK1402
  Antibacterial activity (lethal concentration LC): 151 ± 4 µM
